Test results: US20070015823A1, “Ambruticin VS compounds” (priority 2004, published 2007)
Converted amounts (≈) assume the structure as drawn.

Key:
A. fumigatus ATCC 204305 = experiment: Broth microdilution antifungal susceptibility, NCCLS M38-A; format: cell-based, Aspergillus fumigatus; details: minimal concentration inhibiting >95% growth; average of at least two assays (except I-l and I-x)
Blastomyces dermatitidis = experiment: as above; format: cell-based
A. flavus ATCC 204304 = experiment: as above; format: cell-based, Aspergillus flavus; details: minimal concentration inhibiting >95% growth; average of at least two assays (except I-l and I-x)
Fusarium solani = experiment: as above; format: cell-based; details: strain 96-1; 50% growth inhibition; range = minimum and maximum of multiple assays
C. posadasii = experiment: microbe, parasite or virus in culture; format: cell-based, Coccidioides posadasii
[1] = system: Trichophyton mentagrophytes; experiment: Dermatophyte broth microdilution, NCCLS M38-A; format: cell-based
Trichophyton rubrum = experiment: Dermatophyte broth microdilution, NCCLS M38-A; format: cell-based
Microsporum gypseum = experiment: Dermatophyte broth microdilution, NCCLS M38-A; format: cell-based
S. apiospermum = experiment: Broth microdilution antifungal susceptibility, NCCLS M38-A; format: cell-based, Scedosporium apiospermum
Microsporum canis = experiment: Dermatophyte broth microdilution, NCCLS M38-A; format: cell-based
Histoplasma capsulatum = format: cell-based
Cryptococcus neoformans = experiment: Broth microdilution antifungal susceptibility, NCCLS M38-A; details: 50% growth inhibition, range = minimum and maximum of multiple assays
C. immitis = experiment: microbe, parasite or virus in culture; format: cell-based, Coccidioides immitis
Candida parapsilosis = details: strain 92019; 95% growth inhibition
[2] = system: Trichophyton interdigitale; experiment: Dermatophyte broth microdilution, NCCLS M38-A; format: cell-based
Candida krusei = details: strain 6258; 95% growth inhibition
Epidermophyton floccosum = experiment: Dermatophyte broth microdilution, NCCLS M38-A; format: cell-based

## CC[C@H]1O[C@@H](/C(C)=C/[C@H](C)/C=C/[C@H]2[C@@H](C)[C@@H]2/C=C/[C@@H]2O[C@H](CC(=O)O)C[C@H](N(C)C(C)C)[C@H]2O)CC=C1C [I-v, (5S,6R)-5-(N-isoproyl-methylamino)-6-hydroxypolyangioic acid]
A. fumigatus ATCC 204305
  MIC0 A. fumigatus ATCC 204305: 1.32 µg/mL
Blastomyces dermatitidis
  MIC0 Blastomyces dermatitidis 04-2167: 0.06 µg/mL
  MIC0 Blastomyces dermatitidis 04-2508: 0.06 µg/mL
  MIC0 Blastomyces dermatitidis 04-2915: 0.125 µg/mL
  MIC0 Blastomyces dermatitidis 05-106: 0.03 µg/mL
  MIC0 Blastomyces dermatitidis 05-186: 0.06 µg/mL
  MIC0 Blastomyces dermatitidis 05-1391: 0.03 µg/mL
  MIC0 Blastomyces dermatitidis 05-1707: ≦0.015 μg/mL
  MIC0 Blastomyces dermatitidis 05-1820: 0.06 µg/mL
  MIC0 Blastomyces dermatitidis 05-1829: 0.06 µg/mL
  MIC0 Blastomyces dermatitidis 05-2020: 0.06 µg/mL
  MIC0 Blastomyces dermatitidis R-3529: 0.063 µg/mL
  MIC0 Blastomyces dermatitidis R-35629: 0.03 µg/mL
  MIC B. dermatitidis Gu: 12.5 µg/mL (≈ 23.6 µM)
  MIC B. dermatitidis Kr: >12.5 µg/mL
  MIC B. dermatitidis V: 12.5 µg/mL (≈ 23.6 µM)
A. flavus ATCC 204304
  MIC0 A. flavus ATCC 204304: 1.1 µg/mL
Fusarium solani
  MIC F. solani 96-1: >16 µg/mL
C. posadasii
  MIC C. posadasii C735: 0.25 µg/mL (≈ 0.472 µM)
  MIC C. posadasii RMSCC 2127: 0.125 µg/mL (≈ 0.236 µM)
  MIC C. posadasii Silveria: 0.25 µg/mL (≈ 0.472 µM)
[1]
  MIC0 Tm: 4 µg/mL
Trichophyton rubrum
  MIC0 Tr: 5.03 µg/mL
Microsporum gypseum
  MIC0 Mg: 2 µg/mL
S. apiospermum
  MIC S. apiospermum 94-54: >16 µg/mL
  MIC S. apiospermum 98-38: >16 µg/mL
  MIC S. apiospermum 98-89: 0.25 µg/mL (≈ 0.472 µM)
Microsporum canis
  MIC0 Mc: 2 µg/mL
Histoplasma capsulatum
  MIC H. capsulatum G217B: <0.19 µg/mL
  MIC H. capsulatum GS20: <0.19 µg/mL
Cryptococcus neoformans; strain 97-14
  MIC C. neoformans 97-14: 0.5 µg/mL (≈ 0.944 µM)
Cryptococcus neoformans; strain 11239
  MIC C. neoformans 11239: 0.25 µg/mL (≈ 0.472 µM)
Cryptococcus neoformans; strain 11240
  MIC C. neoformans 11240: 0.25 to 0.5 µg/mL
C. immitis
  MIC C. immitis RMS 2281: 0.125 µg/mL (≈ 0.236 µM)
  MIC C. immitis RS: 0.25 µg/mL (≈ 0.472 µM)
  MIC C. immitis S46: 0.125 µg/mL (≈ 0.236 µM)
Candida albicans; strain 24433, 50% growth inhibition, range = minimum and maximum of multiple assays
  MIC C. albicans 24433: >32 µg/mL
Candida albicans; strain 90028, 50% growth inhibition, range = minimum and maximum of multiple assays
  MIC C. albicans 90028: >32 µg/mL

## CC[C@H]1O[C@@H](/C(C)=C/[C@H](C)/C=C/[C@H]2[C@@H](C)[C@@H]2/C=C/[C@@H]2O[C@H](CC(=O)O)C[C@H](N)[C@H]2O)CCC1C (some centres unmarked) [IV-a, 20,21-dihydro ambruticin VS-5]
A. fumigatus ATCC 204305
  MIC0 A. fumigatus ATCC 204305: 0.85 µg/mL
Blastomyces dermatitidis
  MIC2 B. dermatitidis 05-106: ≦0.15 μg/mL
  MIC2 B. dermatitidis 05-186: ≦0.15 μg/mL
  MIC2 B. dermatitidis 05-1291: ≦0.15 μg/mL
A. flavus ATCC 204304
  MIC0 A. flavus ATCC 204304: 0.18 µg/mL
Candida parapsilosis
  MIC0 C. parapsilosis 92019: <0.0625 µg/mL
[1]
  MIC0 Tm: 1 µg/mL
[2]
  MIC0 Ti: 0.39 µg/mL
Trichophyton rubrum
  MIC0 Tr: 0.5 µg/mL
Microsporum gypseum
  MIC0 Mg: 0.5 µg/mL
Microsporum canis
  MIC0 Mc: 0.5 µg/mL
Candida krusei
  MIC0 C. krusei 6258: >32 µg/mL
Histoplasma capsulatum
  MIC2 H. capsulatum 05-959: ≦0.15 μg/mL
  MIC2 H. capsulatum 05-1097: ≦0.15 μg/mL
  MIC2 H. capsulatum 05-1159: ≦0.15 μg/mL
C. immitis
  MIC2 C. immitis 05-469: ≦0.15 μg/mL
  MIC2 C. immitis 05-955: ≦0.15 μg/mL
  MIC2 C. immitis 05-1387: ≦0.15 μg/mL
Epidermophyton floccosum
  MIC0 Ef: 4 µg/mL
Candida albicans; strain 05-1422
  MIC2 C. albicans 05-1422: ≦0.15 μg/mL
Candida albicans; strain 05-1422, statement in words
  growth of Candida albicans strain 05-1422: inhibits growth
Candida albicans; strain 05-1424
  MIC2 C. albicans 05-1424: >10 µg/mL
Candida albicans; strain 05-1426
  MIC2 C. albicans 05-1426: >10 µg/mL
Candida albicans; strain 90028, 95% growth inhibition
  MIC0 C. albicans 90028: >32 µg/mL
